Measured values published in patent US20160235824A1, “Compositions and Methods for Increasing the Half-Life of Factor XA” (THE CHILDREN'S HOSPITAL OF PHILADELPHIA, priority 2013, published 2016).
Entries after “also recorded” stand apart in the source; their conditions may differ.

Experiments:
citrated human blood = test: rotational thromboelastography (ROTEM) in whole blood; conditions: 250 nM apixaban alone vs untreated (PBS) control blood
Description: FIG. 2 provides a graph of rotational thromboelastograms performed using freshly collected, citrated human blood treated with 25 μg/mL corn trypsin inhibitor (to minimize variation in samples). […] Phosphate buffered saline (PBS) was added to one sample instead of apixaban […].
A coagulation initiator is added, and as the blood clots, rotation of the pin is restricted, which is detected optically by the instrument.

[1] = cited from earlier work
[2] = tail-clip hemostasis experiments in mice; assay type: in vivo
[3] = biological target: FXa-antithrombin III (FXa-ATIII) complex (Homo sapiens, UniProt P00742); test: FXa-antithrombin III complex formation in FX deficient plasma (ELISA); assay type: biochemical; conditions: 100 nM or 1 μM rivaroxaban
FXa-antithrombin III (FXa-ATIII) complex, sequence (P00742 235-488 limits assumed): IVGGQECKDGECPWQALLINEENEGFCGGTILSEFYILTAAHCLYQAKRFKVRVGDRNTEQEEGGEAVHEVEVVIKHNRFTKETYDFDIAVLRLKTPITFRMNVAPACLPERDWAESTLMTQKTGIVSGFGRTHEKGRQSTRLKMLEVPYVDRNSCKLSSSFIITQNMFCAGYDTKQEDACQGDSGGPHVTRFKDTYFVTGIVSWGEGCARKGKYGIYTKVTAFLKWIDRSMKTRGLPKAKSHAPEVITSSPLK
FXa-antithrombin III (FXa-ATIII) complex, sequence (P00742 41-179 limits assumed): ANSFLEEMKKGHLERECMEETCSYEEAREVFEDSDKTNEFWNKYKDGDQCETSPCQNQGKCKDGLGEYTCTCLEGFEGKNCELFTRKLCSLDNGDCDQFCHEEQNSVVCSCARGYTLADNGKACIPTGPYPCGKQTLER

[4] = system: normal human platelet poor plasma (PPP); test: thrombin generation assay (TGA) in platelet poor plasma; assay type: biochemical

| SMILES | effect on clot time (citrated human blood) | effect on clot time (citrated human blood; listed as Apixaban) | plasma protein binding [1] | blood loss ([2]; 50 mg/kg rivaroxaban alone) | effect on blood loss ([2]; rivaroxaban alone) | effect on FXa-ATIII complex formation [3] | peak thrombin generation ([4]; 500 nM rivaroxaban alone) | effect on thrombin generation ([4]; 2.5 μM rivaroxaban alone) | effect on thrombin generation ([4]; inhibitor alone added to normal human plasma (PPP)) |
| --- | --- | --- | --- | --- | --- | --- | --- | --- | --- |
| COc1ccc(-n2nc(C(N)=O)c3c2C(=O)N(c2ccc(N4CCCCC4=O)cc2)CC3)cc1 [apixaban] | prolonged the clot time | prolonged the clot time substantially | heavily protein-bound |  |  |  |  |  |  |
| O=C(NC[C@H]1CN(c2ccc(N3CCOCC3=O)cc2)C(=O)O1)c1ccc(Cl)s1 [rivaroxaban] |  |  | heavily protein-bound | 217 % of normal | dose-dependently increased blood loss | dose-dependently inhibited | ~10 % of normal | completely abrogated thrombin generation | profoundly decrease thrombin generation; also recorded: dose-dependently inhibited thrombin generation |
